Reference: US20240009212A1, “PHOSPHAPLATIN COMPOUNDS AS THERAPEUTIC AGENTS SELECTIVELY TARGETING HIGHLY GLYCOLYTIC TUMOR CELLS AND METHODS THEREOF” (Promontory Therapeutics Inc., priority 2020, published 2024)
Peptide text beside a SMILES is read from it. * marks the point of attachment. Cbz = O=C(OCc1ccccc1)*; CH2F = FC*

What was measured:
Type in all cases: cell-based, mouse
L929dt and L929^dt cells [1] = assay: ROS scavengers on PT-112-induced cell death; conditions: for effect on PT-112-induced cell death: ROS scavenger plus 10 μM PT-112 (GSH 5 mM, 72 h)
L929dt and L929^dt cells [2] = assay: Mitochondrial ROS production (MitoSOX), sensitive cells
Method: Total ROS production and mitochondrial membrane potential were simultaneously measured using a FACScalibur flow cytometer. Pretreated cells with PT-112 were incubated with DiOC6 at 20 nM (Molecular Probes, Madrid) and DHE at 2 μM (Molecular Probes, Madrid) for 30 min at 37° C. For specific mitochondrial ROS production, cells were incubated with MitoSOX™ (5 μM, ThermoFisher, Rockford, USA) for 30 minutes at 37° C.
In order to obtain more evidence about the mechanism of action of PT-112, its effect on ROS production was analyzed. First, a time-course determination of total ROS generation by detection of 2HE oxidation was performed by flow cytometry. […] To complete this study, specific mitochondrial ROS production upon PT-112 treatment using the MitoSOX™ reagent was determined.
However, this effect can be due to direct reactivity of the thiol group with Pt, inactivating the cytotoxic potential of PT-112, and not to the elimination of ROS generation. This hypothesis was confirmed by incubating PT-112 with GSH during 1 h in the absence of cells and adding this GSH-treated PT-112 to cells, showing no cytotoxicity (FIG. 6). […] Since PT-112-induced ROS generation seems to be concentrated in mitochondria, the mitochondria-specific ROS scavenger MitoTEMPO was used. Cells (3×10^4) were seeded in a 96-well plate in phenol red-free medium and were incubated with 100 μM of MitoTEMPO for 2 h. Then, 10 μM of PT-112 was added and incubated for 48 and 72 h at 37° C.

[3] = tested on: glycolytic cells sensitive to PT-112-induced cell death; assay: Apoptosis and necroptosis inhibition of PT-112-induced cell death; conditions: 1 h pretreatment (Z-VAD-fmk 50 μM, necrostatin-1 30 μM), then 10 μM PT-112 for 48 h
Method: Cells (3×10^4) were seeded in a 96-well plate and incubated with a pan-caspase-inhibitor Z-VAD-fmk (50 μM, MedChem Express, New Jersey, USA) and/or RIPK-1 inhibitor necrostatin-1 (30 μM, MedChem Express, New Jersey, USA) for 1 h. After that, cells were treated with 10 μM of PT-112 and incubated for 48 h at 37° C. Both inhibitors were refreshed in their corresponding well after 24 h. Finally, cell death was assessed using flow cytometry after incubation with annexin-V-FITC and 7-AAD for 10 minutes. […] For this purpose, a FITC-labelled anti-caspase-3 antibody that detects cleaved, active caspase-3 by flow cytometry was used. Cells (3×10^4) were treated with 10 μM of PT-112 for 24-72 h. Then, cells were incubated with anti-cleaved caspase-3 labelled with FITC dye and analyzed by flow cytometry. […] The implications of caspase-3 activation in this process were investigated by tested the ability of the general pan-caspase inhibitor Z-VAD-fmk and/or the necroptosis inhibitor necrostatin-1 to prevent cell death induced by PT-112 (FIG. 4B). Cells were pretreated for 1 h with or without pan-caspase or/and necroptosis inhibitors and then, incubated with 10 μM of PT-112 for 48 h. Flow cytometry analysis was carried-out using annexin-V-FITC and 7-AAD staining. Cells were stained simultaneously with annexin-V-FITC and 7-AAD and the percentage of the different populations analyzed by flow cytometry. […]

[4] = tested on: L929dt and L929^dt cybrid cells; assay: MTT relative cell growth, glycolytic cells; conditions: 72 h, highest dose (10 μM)
Method: (§1) Cell Culture and Generation of Cybrids Mouse fibroblast cell lines L929 and L929-derived (L929dt) were routinely cultured in high glucose DMEM medium with GlutaMAX (Life Technologies, Paisley, UK) supplemented with 10% of fetal calf serum (FCS), penicillin (1000 U/ml) and streptomycin (10 mg/ml) (PanBiotech, Aidenbach, Germany) at 37° C. and 5% CO2 using standard procedures. The transmitochondrial cell lines L929^dt and dt^L929 were obtained as previously described (Schmidt, W., et al. (1993) 53:799-805) and cultured with the identical medium used with the parental cells. For L929-ρ^0 cells, complete DMEM medium was also supplemented with 100 pyruvate (100 μg/ml) and uridine (50 μg/ml).
(§2) Relative cell growth was measured using the Mossman's method. 3×10^4 cells were seeded per well in a 96-well flat-bottomed plate and incubated with increasing concentrations of PT-112 or cisplatin (2, 6, and 10 μM) for 24-72 h at 37° C. […] During the incubation time, viable cells reduce MTT solution in insoluble purple formazan crystals, solubilized afterwards with isopropanol and 0.05 M HCl mixture and the absorbance was measured in a microplate reader (Dynatec, Pina de Ebro, Spain).
(§3) The sensitivity of L929, L929dt and cybrid cells to PT-112 was compared. […] The ability of both drugs to inhibit cell growth was assessed by the MTT reduction method. […]

L929 and dt^L929 cells = assay: MTT relative cell growth, OXPHOS-competent cells; conditions: 72 h, higher doses
Method: as §1, §2, §3

L929-ρ^0 cells = assay: MTT relative cell growth, rho0 cells; conditions: 2, 6 and 10 μM, 24-72 h
Method: as §1
Relative cell growth was measured using the Mossman's method. 3×10^4 cells were seeded per well in a 96-well flat-bottomed plate and incubated with increasing concentrations of PT-112 or cisplatin (2, 6, and 10 μM) for 24-72 h at 37° C. Then, 10 μl of a 5 mg/ml MTT dye solution was added per well and incubated for 3 hours. During the incubation time, viable cells reduce MTT solution in insoluble purple formazan crystals, solubilized afterwards with isopropanol and 0.05 M HCl mixture and the absorbance was measured in a microplate reader (Dynatec, Pina de Ebro, Spain). […]

[5] = tested on: L929, L929dt and cybrids cells; assay: Cytotoxicity, annexin-V-FITC/7-AAD flow cytometry; conditions: 10 μM, 24, 48 or 72 h
Method: Cytotoxicity assays were carried-out as follows: 100 μl aliquots of 3×10^4 cells were seeded per well in 96-well plate and 10 μM of PT-112 or cisplatin was added and incubated for 24-72 h at 37° C. Cell death was analyzed using a FACScalibur flow cytometer (BD Biosciences) after incubation with Annexin-V-FITC and/or 7-AAD (BD Biosciences, Madrid) in annexin binding buffer (140 mM NaCl, 2.5 mM CaCl2), 10 mM HEPES/NaOH, pH 7.4) for 10 minutes.
To test cell death induction by PT-112 and cisplatin, the parental cells L929, L929dt and cybrids cells were incubated with 10 μM of PT-112 or cisplatin for 24, 48 or 72 h and, at the end of the incubations, simultaneously stained with annexin-V-FITC and 7-AAD and analyzed by flow cytometry. […] The results are shown as mean±SD of at least 2 independent experiments made in duplicate. […] On the contrary, in cells treated with PT-112, this population is not observed at any time point in sensitive L929dt and L929^dt cells, and a population double positive for both markers is at short times of exposure, increasing with time (FIG. 2B, bar sections colored in white). Finally, at longer times, a population positive for 7-AAD and negative for annexin-V staining appears for both cell lines, typical of necrotic cell death (FIG. 2B, sections colored in grey).

**Q.** `CC1(C)CC(NC(=O)C[P+](c2ccccc2)(c2ccccc2)c2ccccc2)CC(C)(C)N1[O]` [MitoTEMPO] was tested. Which “protection from PT-112-induced L929dt cell death” value (L929dt and L929^dt cells [1]; 100 μM MitoTEMPO, 10 μM PT-112, statistically significant after 72 h) did it give?
**A.** partial protection

**Q.** And the “inhibition of mitochondrial superoxide generation induced by PT-112” value (L929dt and L929^dt cells [2]; 100 μM MitoTEMPO 2 h, then 10 μM PT-112, L929dt cells)?
**A.** only partially

**Q.** And the “inhibition of mitochondrial superoxide generation induced by antimycin A” value (L929dt and L929^dt cells [2]; 100 μM MitoTEMPO, L929dt cells)?
**A.** almost completely abolish

**Q.** `O=C(O)c1ccc(/C2=C3\C=CC(=N3)/C(c3ccc(C(=O)O)cc3)=c3/cc/c4[n]3[Mn]([Cl])[n]3c2ccc3/C(c2ccc(C(=O)O)cc2)=C2/C=CC(=N2)\C=4c2ccc(C(=O)O)cc2)cc1` [MnTBAP] was tested. Which “effect on PT-112-induced cell death” value (L929dt and L929^dt cells [1]) did it give?
**A.** neither of them were able to prevent

**Q.** Which “effect on PT-112-induced cell death” value (L929dt and L929^dt cells [1]) does the source give for `CC1(C)CCCC(C)(C)N1[O]` [TEMPO] here?
**A.** neither of them were able to prevent

**Q.** How did the “prevention of cell death induced by PT-112” value [3] turn out when `COC(=O)C[C@H](NC(=O)[C@H](C)NC(=O)[C@@H](NC(=O)OCc1ccccc1)C(C)C)C(=O)CF` [Z-VAD-fmk] (Cbz-Val-Ala-Asp(OMe)-CH2F) was run?
**A.** did not inhibit cell death

**Q.** What does the source list for `N.N.[Cl][Pt][Cl]` [cisplatin]?
**A.** growth inhibition [4]: 95%; growth inhibition (L929 and dt^L929 cells): 70%; cell growth (L929-ρ^0 cells): inhibited the growth; cell death induction [5]: induces cell death in all cell lines

**Q.** How did the “effect on PT-112-induced cell death” value (L929dt and L929^dt cells [1]) turn out when `N[C@@H](CCC(=O)N[C@@H](CS)C(=O)NCC(=O)O)C(=O)O` [glutathione] was run?
**A.** completely abolished

**Q.** For `CN1C(=O)C(Cc2c[nH]c3ccccc23)NC1=S` (centres unmarked) [necrostatin-1], which “prevention of cell death induced by PT-112” value [3] is on record?
**A.** did not inhibit cell death

**Q.** With `Cc1c(C)c2c(c(C)c1O)CC[C@@](C)(CCC[C@H](C)CCC[C@H](C)CCCC(C)C)O2` [α-tocopherol] as the compound, how does the “effect on PT-112-induced cell death” value (L929dt and L929^dt cells [1]) read?
**A.** neither of them were able to prevent

**Q.** Which “mitochondrial superoxide anion, MFI” value (L929dt and L929^dt cells [2]; L929dt cells, MitoSOX, FIG. 7) does the source give for antimycin A here?
**A.** 128
